Activity calls are given as the source filed them.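 How the source made its calls: active means compounds giving half or more protection of infected cells from virus-caused growth loss, again on retest; inactive means the rest.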

As a reminder, the EC50 is the concentration needed to bring the measured effect to its halfway point. As a reminder, the IC50 is the concentration that gives 50% inhibition.

For the assay, the system named is CEM cells HIV-1 protection, formazan growth assay. Kind of assay: NCI AIDS Antiviral Assay. Particulars: for IC50: measured here: growth of uninfected CEM cells. The essentials: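 Protection of CEM cells against HIV-1 was scored from cell growth (soluble formazan) across five concentrations, with parallel uninfected cells. Lack of protection may reflect toxicity.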

For the compound `NCCNC(=O)CN(CC(=O)O)C1CCCCC1N(CC(=O)O)CC(=O)O` (stereo not drawn), the EC50 is > 200 µM and the 50% inhibitory concentration (IC50) is > 200 µM.
`O=C(O)CC1CC2CC(=O)C1C2` (stereo not drawn): the EC50 is > 200 µM and the IC50 was > 200 µM.
As to `C(/C=N/NC1=NCCCN1)=N\NC1=NCCCN1`, the EC50 is 162 µM and the IC50 is > 200 µM.
For the compound `N#CC1=C2SCCN2C(=O)C(C#N)C12CCCCC2` (stereo not drawn), the EC50 was > 200 µM and the IC50 is > 200 µM.
Consider `CC(O)CCCOC(c1ccccc1)(c1ccccc1)c1ccccc1` (stereo not drawn), for which the EC50 was > 38.9 µM and the IC50 is > 38.9 µM.
Consider `O=S1(=O)c2ccccc2N2C(c3ccccc3)=NOC2(c2ccccc2)CC1c1ccc(Br)cc1` (stereo not drawn), for which the result was inactive.
In the case of `CC(CO)C1=C(c2c[nH]c3ccccc23)C2C(C)C[C@H](O)C3(C)C(C)CCC(O)C23CC1` (stereo partly drawn), the result was inactive.
Turning to `COc1ccccc1NC(=S)N/C=C(\C#N)c1nc2ccccc2s1`, the EC50 is > 200 µM and the IC50 came out at 117 µM.
`Cc1c(C(=O)NCCO)[n+](=O)c2ccccc2n1[O-]`: the EC50 is > 135 µM and the IC50 was > 135 µM.
Turning to `O=C(c1ccccc1)c1ccc(C(=O)c2ccccc2)cc1`, the EC50 is > 5.01 µM and the half-maximal inhibitory concentration (IC50) was > 5.01 µM.
For `C[Si](C)(C)CCOCN(C(=O)C1=CCC2(CC1)OCCO2)c1ccccc1I`, the EC50 is > 200 µM and the half-inhibitory concentration (IC50) was 12.9 µM.
Taken in the same sequence, the figures for `O=C1C(Cl)=C(c2ccc(Cl)s2)C(=O)c2ccccc21` were > 42.7 µM and 7.59 µM.
Taken in the same sequence, the figures for `C=C1CC2(CCOc3ccccc32)OC1=O` (stereo not drawn) were > 871 µM and 4.37 µM.
Taken in the same sequence, the figures for `COC1=CC(=O)O[C@]2(C)OCC(C)C(O)=C12` (stereo partly drawn) were > 1100 µM and > 1100 µM.
With `CCC[CH2][Sn]([CH2]CCC)([O]C(=O)c1ccc(OC)c(OC)c1OC)[O][Sn]([CH2]CCC)([CH2]CCC)[O]C(=O)c1ccc(OC)c(OC)c1OC`, the EC50 is > 5.75 µM and the IC50 was 0.871 µM.
Taken in the same sequence, the figures for `CCOP1(OCC)(SSC)OC(=O)C(C)S1` (stereo not drawn) were > 813 µM and 617 µM.
Turning to `O=C1Nc2ccccc2N2C(=O)CCC12` (stereo not drawn), the EC50 is > 1230 µM and the IC50 came to 617 µM.
For the compound `Cc1ccc2c(c1)sc1nnc(S(C)(=O)=O)n12`, the EC50 is > 200 µM and the IC50 was 11.2 µM.
Taken in the same sequence, the figures for `Cn1c(=O)c2c(ncn2CC(=O)N/N=C2\SCC(=O)N2Cc2ccccc2)n(C)c1=O` were > 74.1 µM and > 74.1 µM.
As for `CC12Nc3c(Cl)cc(Cl)cc3N1C(=O)c1ccccc12` (stereo not drawn), the EC50 is > 200 µM and the 50% inhibitory concentration (IC50) worked out at 87.1 µM.
Taken in the same sequence, the figures for `CCOc1ccccc1NC(=O)CC1C(=O)Nc2ccccc2S1=O` (stereo not drawn) were > 38 µM and > 38 µM.
Turning to `CCN(CC)c1ccc(N=C2C=CC(=O)c3ncccc32)c(C)c1`, the EC50 was > 11.7 µM and the half-maximal inhibitory concentration (IC50) was > 11.7 µM.
For `OC1OC(c2ccco2)C(F)(F)C(F)(F)C1(F)F` (stereo not drawn), the EC50 was > 200 µM and the IC50 is 102 µM.
Consider `CC(C)OC(=O)C(NC(=O)C(CC(=O)OCc1ccccc1)NC(=O)OCc1ccccc1)NC(=O)C1C(C)(C)CCC1(C)C` (stereo not drawn), for which the EC50 is > 200 µM and the IC50 was determined as 12.6 µM.
`COc1cc2ccc(/C(C)=N/OC(C)=O)cc2cc1OC`: the outcome was inactive.
`NCC1(N2CCOCC2)C2CCCC21CO` (stereo not drawn): the EC50 is > 1100 µM and the IC50 is > 1100 µM.
On to `C[n+]1c(-c2ccc(/C=N\Nc3ccnc(N/N=C/c4ccc(-c5cn6ccsc6[n+]5C)cc4)n3)cc2)cn2ccsc21`, for which the EC50 was > 41.7 µM and the half-inhibitory concentration (IC50) worked out at 28.8 µM.
With `CC1(C)CC(=O)C2=C(C1)NC(SCC(=O)O)=C(C#N)C2c1ccc(Br)cc1` (stereo not drawn), the EC50 is > 200 µM and the IC50 amounted to 178 µM.
Consider `CC1(C)OC[C@@H]([C@H](C=O)OCc2ccccc2)O1`, for which the EC50 is > 200 µM and the IC50 is > 200 µM.
On to `CC[N+](C)(CC)CCSC1=Nc2ccccc2N=C(c2ccc(Sc3ccccc3)cc2)C1`, for which the EC50 was > 200 µM and the IC50 was 6.76 µM.
Turning to `COC(=O)C(=O)C(C(=O)C(=O)Nc1ccccc1[N+](=O)[O-])c1nc2ccc([N+](=O)[O-])cc2[nH]c1=O` (stereo not drawn), the EC50 is > 269 µM and the half-maximal inhibitory concentration (IC50) came out at 245 µM.
For `Cc1cc(O)c2c(c1)C([C@]13Cc4cc(O)c5c(c4[C@H]1C=C[C@@H](O)C3O)C(=O)c1c(O)ccc(O)c1C5=O)OC2=O` (stereo partly drawn), the EC50 was > 6.61 µM and the IC50 is > 6.61 µM.
With `COc1ccc(-c2ncnc(-c3ccc(OC)c(OC)c3)n2)cc1OC`, the EC50 was > 100 µM and the IC50 is > 100 µM.
For `O=c1c(SCc2ccccc2Cl)c(SCc2ccccc2Cl)cnn1-c1ccccc1`, the EC50 is > 7.76 µM and the 50% inhibitory concentration (IC50) stood at 5.5 µM.
Regarding `CCn1c2ccccc2c2cc(NC(=O)c3c(NCCNCCO)nc(=O)[nH]c3C)ccc21`, the EC50 was > 200 µM and the IC50 was > 200 µM.
On to `COc1ccc(-c2c3c(n(C4OC(COC(C)=O)C(OC(C)=O)C(OC(C)=O)C4OC(C)=O)c(=S)c2C#N)CCC3)cc1` (stereo not drawn), for which the EC50 was > 200 µM and the IC50 came out at 112 µM.
For `O=C1CCCCc2scc(C(=O)O)c2N1`, the EC50 is > 1120 µM and the IC50 is > 1120 µM.
On to `CCOC(=O)C(Cc1ccc2c(c1)CCC2)Cc1ccc2c(c1)CCC2`, for which the EC50 is > 200 µM and the IC50 came to 1.62 µM.
For the compound `COC(=O)c1c(C)c(=O)n(C)c(=O)n1C`, the outcome was inactive.
In the case of `CCCCCCCCCCNCCSSCc1ccc(OC)cc1`, the EC50 was > 200 µM and the IC50 was determined as 3.39 µM.
Taken in the same sequence, the figures for `O=C1C2=Cc3ccccc3OC2(O)Oc2ccc(O)cc21` (stereo not drawn) were > 200 µM and 50.1 µM.
`Cn1c(=O)cc(CC(=O)C(=O)O)c2ccccc21`: the EC50 is > 200 µM and the IC50 was found to be 148 µM.
Taken in the same sequence, the figures for `CC(C)(C)c1cc[n+](C[n+]2ccc(C(C)(C)C)cc2)cc1` were > 200 µM and > 200 µM.
In the case of `CCN(CC)C(=O)CCn1cc(F)c(=O)[nH]c1=O`, the EC50 was > 977 µM and the IC50 was > 977 µM.
Consider `COC(=O)/C=C1\C(CO[Si](C)(C)C(C)(C)C)OC(n2ccc(=O)[nH]c2=O)C1O[Si](C)(C)C(C)(C)C` (stereo not drawn), for which the EC50 is > 200 µM and the IC50 came out at 8.32 µM.
On to `CC(=O)OCC(=O)[C@@]1(O)CC[C@H]2[C@@H]3CCC4=CC(=O)C=C[C@]4(C)[C@@]3(F)[C@@H](O)C[C@@]21C`, for which the result was inactive.
As for `CC(C)=CCC[C@@H](C)C1=C(O)C(N[C@H](C)c2ccccc2)=C(C)C(=O)C1=O`, the EC50 is > 200 µM and the IC50 worked out at 1.66 µM.
In the case of `O=C1NC(=O)C(c2ccccc2)(c2ccccc2)N1`, the EC50 is > 372 µM and the IC50 is > 372 µM.
In the case of `NC(=O)N=C(N(Cc1ccccc1)Cc1ccccc1)N(Cc1ccccc1)Cc1ccccc1`, the EC50 is > 7.59 µM and the IC50 came to 2.24 µM.
As to `Cc1n[nH]c2ccc([N+](=O)[O-])cc2c1=O`, the EC50 was > 57.5 µM and the IC50 is > 57.5 µM.
`CC(C)CCCC(C)[C@H]1CCC2[C@H]3C(CC[C@@]21C)[C@@]1(C)CCC=C[C@]12C[C@@H]2[C@@H]3O` (stereo partly drawn): the outcome was inactive.
As for `O=C1OC(OCC#CCOC2OC(=O)C(Cl)=C2Cl)C(Cl)=C1Cl` (stereo not drawn), the EC50 is > 200 µM and the IC50 was 1.7 µM.
